From ChEMBL document CHEMBL1833963, “Synthesis of new 3,20-bispolyaminosteroid squalamine analogues and evaluation of their antimicrobial activities” (2011)
Values after ≈ are worked out from the molar mass of the structure shown. Active and inactive are the calls of the source. The calls are words filed in the database; no cut-off is given here.

What was measured:
Inquilinus limosus = assay: Antibacterial activity against colistin-resistant Inquilinus limosus after 24 hrs by microbroth dilution method; assay type: functional
Staphylococcus aureus [1] = assay: Antibacterial activity against Staphylococcus aureus after 24 hrs by microbroth dilution method; assay type: functional
Staphylococcus aureus [2] = assay: Antibacterial activity against oxacillin-sensitive Staphylococcus aureus after 24 hrs by microbroth dilution method; assay type: functional
Pseudomonas aeruginosa [3] = assay: Antibacterial activity against colistin-sensitive Pseudomonas aeruginosa after 24 hrs by microbroth dilution method; assay type: functional
Escherichia coli [4] = assay: Antibacterial activity against Escherichia coli after 24 hrs by microbroth dilution method; assay type: functional
Pseudomonas aeruginosa [5] = assay: Antibacterial activity against Pseudomonas aeruginosa after 24 hrs by microbroth dilution method; assay type: functional
Staphylococcus aureus [6] = assay: Antibacterial activity against oxacillin-resistant Staphylococcus aureus after 24 hrs by microbroth dilution method; assay type: functional
Burkholderia cepacia = assay: Antibacterial activity against Colistin resistant Burkholderia cepacia after 24 hrs by microbroth dilution method; assay type: functional
Staphylococcus aureus [7] = assay: Antibacterial activity against Staphylococcus aureus ATCC 25923 after 24 hrs by microbroth dilution method in absence of Mg2+; assay type: functional
Staphylococcus aureus [8] = assay: Bactericidal activity against Staphylococcus aureus DSM 799 assessed as log decrease in bacterial count at MIC after 2 hrs by time-kill assay; assay type: functional
Staphylococcus aureus [9] = assay: Antibacterial activity against Staphylococcus aureus ATCC 25923 after 24 hrs by microbroth dilution method in presence of Mg2+; assay type: functional
Escherichia coli [10] = assay: Antibacterial activity against Escherichia coli ATCC 25922 after 24 hrs by microbroth dilution method in absence of Mg2+; assay type: functional
Escherichia coli [11] = assay: Antibacterial activity against Escherichia coli ATCC 25922 after 24 hrs by microbroth dilution method in presence of Mg2+; assay type: functional
Escherichia coli [12] = assay: Antibacterial activity against Escherichia coli assessed as induction of ATP efflux at 4 times MIC after 5 mins by luminometry analysis; assay type: functional
Staphylococcus aureus [13] = assay: Antibacterial activity against Staphylococcus aureus assessed as induction of ATP efflux at 4 times MIC after 5 mins by luminometry; assay type: functional
Escherichia coli [14] = assay: Ratio of MIC for Escherichia coli ATCC 25922 in presence of Mg2+ to MIC for Escherichia coli ATCC 25922 in absence of Mg2+; assay type: functional
Staphylococcus aureus [15] = assay: Antibacterial activity against Staphylococcus aureus assessed as induction of bacterial membrane depolarization at MIC after 3 mins by fluorescence assay; assay type: functional
Staphylococcus aureus [16] = assay: Antibacterial activity against Staphylococcus aureus assessed as induction of bacterial membrane depolarization at MIC measured up to 21 mins by fluorescence assay; assay type: functional, organism-based
Escherichia coli [17] = assay: Antibacterial activity against Escherichia coli assessed as induction of bacterial membrane depolarization at MIC measured up to 21 mins by fluorescence assay; assay type: functional, organism-based
Staphylococcus aureus [18] = assay: Antibacterial activity against Staphylococcus aureus assessed as induction of bacterial membrane depolarization at MIC measured up to 21 mins by fluorescence assay relative to squalamine; assay type: functional
Staphylococcus aureus [19] = assay: Bactericidal activity against Staphylococcus aureus DSM 799 assessed as log decrease in bacterial count at MIC after 1 hr by time-kill assay; assay type: functional
Pseudomonas aeruginosa [20] = assay: Bactericidal activity against Pseudomonas aeruginosa DSM 939 assessed as complete killing at MIC after 2 hrs by time-kill assay; assay type: functional, organism-based
Escherichia coli [21] = assay: Antibacterial activity against Escherichia coli assessed as induction of bacterial membrane depolarization at MIC measured up to 21 mins by fluorescence assay relative to squalamine; assay type: functional

Row | Compound | MIC (Inquilinus limosus) [µg/mL] | MIC (Staphylococcus aureus [1]) [µg/mL] | MIC (Staphylococcus aureus [2]) [µg/mL] | MIC (Pseudomonas aeruginosa [3]) [µg/mL] | MIC (Escherichia coli [4]) [µg/mL] | MIC (Pseudomonas aeruginosa [5]) [µg/mL] | MIC (Staphylococcus aureus [6]) [µg/mL] | MIC (Burkholderia cepacia) [µg/mL] | other results
1 | C[C@@H](NCCCCCCCN)[C@H]1CC[C@H]2[C@@H]3CCC4=C[C@@H](NCCCCCCCN)CC[C@]4(C)[C@H]3CC[C@]12C | 20 (≈ 36.8 µM) | 2.5 (≈ 4.6 µM) | 2.5 (≈ 4.6 µM) | 10 (≈ 18.4 µM) | 5 (≈ 9.21 µM) | 10 (≈ 18.4 µM) | 5 (≈ 9.21 µM) | > 40 | 
2 | NC[C@H]1O[C@H](O[C@H]2[C@H](O)[C@@H](O[C@H]3O[C@H](CO)[C@@H](O)[C@H](N)[C@H]3O)[C@H](N)C[C@@H]2N)[C@H](N)C[C@@H]1O [TOBRAMYCIN] | > 40 | 1.25 (≈ 2.67 µM) | 1.25 (≈ 2.67 µM) | 5 (≈ 10.7 µM) | 2.5 (≈ 5.35 µM) | 5 (≈ 10.7 µM) |  | > 40 | MIC (Staphylococcus aureus [7]; ATCC 25923, 24 h): 1 µg/mL (≈ 2.14 µM); FC (Staphylococcus aureus [8]): 5; MIC (Staphylococcus aureus [9]; ATCC 25923, 24 h): 2 µg/mL; MIC (Escherichia coli [10]; ATCC 25922, 24 h): 2 µg/mL (≈ 4.28 µM); MIC (Escherichia coli [11]; ATCC 25922, 24 h): 1 µg/mL
3 | C[C@@H](N)[C@H]1CC[C@H]2[C@@H]3CCC4=C[C@@H](N)CC[C@]4(C)[C@H]3CC[C@]12C | > 40 | 40 (≈ 126 µM) | > 40 | > 40 | > 40 | > 40 | 40 (≈ 126 µM) | > 40 | 
4 | CC(C)[C@@H](CC[C@@H](C)[C@H]1CC[C@H]2[C@@H]3[C@H](O)C[C@H]4C[C@@H](NCCCNCCCCN)CC[C@]4(C)[C@H]3CC[C@]12C)OS(=O)(=O)O [SQUALAMINE] | 5 (≈ 7.96 µM) | 1.25 (≈ 1.99 µM) | 0.3 (≈ 0.478 µM) | 5 (≈ 7.96 µM) | 5 (≈ 7.96 µM) | 2.5 (≈ 3.98 µM) | 1.25 (≈ 1.99 µM) | > 40 | MIC (Staphylococcus aureus [7]; ATCC 25923, 24 h): 1.25 µg/mL (≈ 1.99 µM); Activity (Escherichia coli [12]): <35%; MIC (Staphylococcus aureus [9]; ATCC 25923, 24 h): 1.25 µg/mL; Activity (Staphylococcus aureus [13]): 100%; Ratio (Escherichia coli [14]): 4; MIC (Escherichia coli [10]; ATCC 25922, 24 h): 2.5 µg/mL (≈ 3.98 µM); Activity (Staphylococcus aureus [15]): 80%; MIC (Escherichia coli [11]; ATCC 25922, 24 h): 32 µg/mL; Activity (Staphylococcus aureus [16]): Active; Activity (Escherichia coli [17]): inactive
5 | C[C@@H](NCCCCN)[C@H]1CC[C@H]2[C@@H]3CCC4=C[C@@H](NCCCCN)CC[C@]4(C)[C@H]3CC[C@]12C | 40 (≈ 87.2 µM) | 5 (≈ 10.9 µM) | 10 (≈ 21.8 µM) | 20 (≈ 43.6 µM) | 10 (≈ 21.8 µM) | 20 (≈ 43.6 µM) | 6 (≈ 13.1 µM) | > 40 | 
6 | C[C@@H](NCCCCCCCCN)[C@H]1CC[C@H]2[C@@H]3CCC4=C[C@@H](NCCCCCCCCN)CC[C@]4(C)[C@H]3CC[C@]12C | 10 (≈ 17.5 µM) | 2.5 (≈ 4.38 µM) | 2.5 (≈ 4.38 µM) | 2.5 (≈ 4.38 µM) | 5 (≈ 8.76 µM) | 2.5 (≈ 4.38 µM) | 5 (≈ 8.76 µM) | > 40 | fold change (FC) (Staphylococcus aureus [18]): 4; MIC (Staphylococcus aureus [7]; ATCC 25923, 24 h): 2.5 µg/mL (≈ 4.38 µM); FC (Staphylococcus aureus [19]): 5; Activity (Escherichia coli [12]): <35%; MIC (Staphylococcus aureus [9]; ATCC 25923, 24 h): 5 µg/mL; Activity (Pseudomonas aeruginosa [20]): Active; Ratio (Escherichia coli [14]): 4; fold change (FC) (Escherichia coli [21]): 4; MIC (Escherichia coli [10]; ATCC 25922, 24 h): 2.5 µg/mL (≈ 4.38 µM); MIC (Escherichia coli [11]; ATCC 25922, 24 h): 10 µg/mL
7 | C[C@@H](NCCCN)[C@H]1CC[C@H]2[C@@H]3CCC4=C[C@@H](NCCCN)CC[C@]4(C)[C@H]3CC[C@]12C | 20 (≈ 46.4 µM) | 10 (≈ 23.2 µM) | 10 (≈ 23.2 µM) | 20 (≈ 46.4 µM) | 10 (≈ 23.2 µM) | 10 (≈ 23.2 µM) | 5 (≈ 11.6 µM) | > 40 | 
8 | C[C@@H](NCCCCCN)[C@H]1CC[C@H]2[C@@H]3CCC4=C[C@@H](NCCCCCN)CC[C@]4(C)[C@H]3CC[C@]12C | 40 (≈ 82.2 µM) | 5 (≈ 10.3 µM) | 5 (≈ 10.3 µM) | 20 (≈ 41.1 µM) | 10 (≈ 20.5 µM) | 10 (≈ 20.5 µM) | 10 (≈ 20.5 µM) | > 40 | 
9 | CN[C@@H]1C=C2CC[C@H]3[C@@H]4CC[C@H]([C@@H](C)NC)[C@@]4(C)CC[C@@H]3[C@@]2(C)CC1 | > 40 | 40 (≈ 116 µM) | 20 (≈ 58 µM) | > 40 | > 40 | > 40 | 20 (≈ 58 µM) | > 40 | 
10 | C[C@@H](NCCCCCCCCCCCCN)[C@H]1CC[C@H]2[C@@H]3CCC4=C[C@@H](NCCCCCCCCCCCCN)CC[C@]4(C)[C@H]3CC[C@]12C | 20 (≈ 29.3 µM) | 10 (≈ 14.6 µM) | 5 (≈ 7.32 µM) | 40 (≈ 58.5 µM) | 20 (≈ 29.3 µM) | 40 (≈ 58.5 µM) | 10 (≈ 14.6 µM) | > 40 | 
11 | C[C@@H](NCCCCCCCCCCN)[C@H]1CC[C@H]2[C@@H]3CCC4=C[C@@H](NCCCCCCCCCCN)CC[C@]4(C)[C@H]3CC[C@]12C | 20 (≈ 31.9 µM) | 10 (≈ 15.9 µM) | 5 (≈ 7.97 µM) | 40 (≈ 63.8 µM) | 20 (≈ 31.9 µM) | 40 (≈ 63.8 µM) | 5 (≈ 7.97 µM) | > 40 | 
12 | C[C@@H](NCCCCCCN)[C@H]1CC[C@H]2[C@@H]3CCC4=C[C@@H](NCCCCCCN)CC[C@]4(C)[C@H]3CC[C@]12C | 20 (≈ 38.8 µM) | 2.5 (≈ 4.86 µM) | 5 (≈ 9.71 µM) | 20 (≈ 38.8 µM) | 5 (≈ 9.71 µM) | 10 (≈ 19.4 µM) | 5 (≈ 9.71 µM) | > 40 | 
13 | C[C@@H](NCCN)[C@H]1CC[C@H]2[C@@H]3CCC4=C[C@@H](NCCN)CC[C@]4(C)[C@H]3CC[C@]12C | > 40 | 20 (≈ 49.7 µM) | 20 (≈ 49.7 µM) | 20 (≈ 49.7 µM) | 20 (≈ 49.7 µM) | 20 (≈ 49.7 µM) | 10 (≈ 24.8 µM) | > 40 | 
14 | C[C@@H](NCCCCCCCCCN)[C@H]1CC[C@H]2[C@@H]3CCC4=C[C@@H](NCCCCCCCCCN)CC[C@]4(C)[C@H]3CC[C@]12C | 20 (≈ 33.4 µM) | 5 (≈ 8.35 µM) | 5 (≈ 8.35 µM) | 40 (≈ 66.8 µM) | 20 (≈ 33.4 µM) | 40 (≈ 66.8 µM) | 5 (≈ 8.35 µM) | > 40 | 
15 | COLISTIMETHATE SODIUM | > 100 |  |  | 5 | 2.5 | 5 |  | > 40 | MIC (Staphylococcus aureus [7]): > 128 µg/mL; Activity (Escherichia coli [12]): 4%; MIC (Staphylococcus aureus [9]): > 128 µg/mL; Activity (Staphylococcus aureus [13]): inactive; Ratio (Escherichia coli [14]): 4; MIC (Escherichia coli [10]): 0.5 µg/mL; MIC (Escherichia coli [11]): 16 µg/mL
